From ChEMBL document CHEMBL5247598 (Eur J Med Chem, 2022)
The source made the active and inactive calls. No cut-off for these calls is given here.

Legend:
L02 = test: Cytotoxicity against human L02 cells assessed as inhibition of cell growth at 50 uM incubated for 48 hrs by MTT assay; assay type: toxicity, cell-based; conditions: l02, 48 h
P-gp = test: Therapeutic index, ratio of IC50 for cytotoxicity against human HEK293T cells to EC50 for reversal of P-gp-mediated multidrug resistance in human NCI-ADR-RES cells; assay type: toxicity, cell-based; conditions: read-out: Ratio IC50/EC50
NCI/ADR-RES [1] = test: Reversal of P-gp-mediated multidrug resistance in human NCI-ADR-RES cells assessed as potentiation of doxorubicin-induced cytotoxicity incubated for 48 hrs by MTT assay; assay type: functional, cell-based
NCI/ADR-RES [2] = test: Antiproliferative activity against human multidrug resistant NCI-ADR-RES cells assessed as inhibition of cell growth at 50 uM incubated for 48 hrs by MTT assay; assay type: functional, cell-based
NCI/ADR-RES [3] = test: Reversal of P-gp-mediated multidrug resistance in human NCI-ADR-RES cells assessed as change in ABCB1 expression level at 1 to 10 uM incubated for 48 hrs by Western blot analysis; assay type: functional, cell-based; conditions: dose 1-10 µM
NCI/ADR-RES [4] = test: Induction of apoptosis in human NCI-ADR-RES cells assessed as late apoptotic cells at 3 uM incubated for 24 hrs by Annexin V-FITC and DAPI staining based flow cytometry (Rvb= 0.66 %); assay type: functional
NCI/ADR-RES [5] = test: Induction of apoptosis in human NCI-ADR-RES cells assessed as viable cells at 8 uM incubated for 48 hrs in presence of doxorubicin by Annexin V-FITC and DAPI staining based flow cytometry (Rvb= 97.9 %); assay type: functional; conditions: read-out: Activity
NCI/ADR-RES [6] = test: Induction of apoptosis in human NCI-ADR-RES cells assessed as late apoptotic cells at 3 uM incubated for 48 hrs by Annexin V-FITC and DAPI staining based flow cytometry (Rvb= 0.66 %); assay type: functional
NCI/ADR-RES [7] = test: Induction of apoptosis in human NCI-ADR-RES cells assessed as early apoptotic cells at 8 uM incubated for 24 hrs in presence of doxorubicin by Annexin V-FITC and DAPI staining based flow cytometry (Rvb= 0.89 %); assay type: functional
A549/TR = test: Antiproliferative activity against human Taxol resistant A549 cells assessed as inhibition of cell growth at 50 uM incubated for 48 hrs by MTT assay; assay type: functional, cell-based
[8] = target: ATP-dependent translocase ABCB1 (Homo sapiens, UniProt P08183); test: Effect on P-gp (unknown origin) ATPase activity assessed as increased ATP consumption using Mg-ATP as substrate preincubated for 5 min followed by Mg-ATP addition and measured after 40 mins by P-gp Glo luminescence assay
ATP-dependent translocase ABCB1, sequence (P08183 whole entry): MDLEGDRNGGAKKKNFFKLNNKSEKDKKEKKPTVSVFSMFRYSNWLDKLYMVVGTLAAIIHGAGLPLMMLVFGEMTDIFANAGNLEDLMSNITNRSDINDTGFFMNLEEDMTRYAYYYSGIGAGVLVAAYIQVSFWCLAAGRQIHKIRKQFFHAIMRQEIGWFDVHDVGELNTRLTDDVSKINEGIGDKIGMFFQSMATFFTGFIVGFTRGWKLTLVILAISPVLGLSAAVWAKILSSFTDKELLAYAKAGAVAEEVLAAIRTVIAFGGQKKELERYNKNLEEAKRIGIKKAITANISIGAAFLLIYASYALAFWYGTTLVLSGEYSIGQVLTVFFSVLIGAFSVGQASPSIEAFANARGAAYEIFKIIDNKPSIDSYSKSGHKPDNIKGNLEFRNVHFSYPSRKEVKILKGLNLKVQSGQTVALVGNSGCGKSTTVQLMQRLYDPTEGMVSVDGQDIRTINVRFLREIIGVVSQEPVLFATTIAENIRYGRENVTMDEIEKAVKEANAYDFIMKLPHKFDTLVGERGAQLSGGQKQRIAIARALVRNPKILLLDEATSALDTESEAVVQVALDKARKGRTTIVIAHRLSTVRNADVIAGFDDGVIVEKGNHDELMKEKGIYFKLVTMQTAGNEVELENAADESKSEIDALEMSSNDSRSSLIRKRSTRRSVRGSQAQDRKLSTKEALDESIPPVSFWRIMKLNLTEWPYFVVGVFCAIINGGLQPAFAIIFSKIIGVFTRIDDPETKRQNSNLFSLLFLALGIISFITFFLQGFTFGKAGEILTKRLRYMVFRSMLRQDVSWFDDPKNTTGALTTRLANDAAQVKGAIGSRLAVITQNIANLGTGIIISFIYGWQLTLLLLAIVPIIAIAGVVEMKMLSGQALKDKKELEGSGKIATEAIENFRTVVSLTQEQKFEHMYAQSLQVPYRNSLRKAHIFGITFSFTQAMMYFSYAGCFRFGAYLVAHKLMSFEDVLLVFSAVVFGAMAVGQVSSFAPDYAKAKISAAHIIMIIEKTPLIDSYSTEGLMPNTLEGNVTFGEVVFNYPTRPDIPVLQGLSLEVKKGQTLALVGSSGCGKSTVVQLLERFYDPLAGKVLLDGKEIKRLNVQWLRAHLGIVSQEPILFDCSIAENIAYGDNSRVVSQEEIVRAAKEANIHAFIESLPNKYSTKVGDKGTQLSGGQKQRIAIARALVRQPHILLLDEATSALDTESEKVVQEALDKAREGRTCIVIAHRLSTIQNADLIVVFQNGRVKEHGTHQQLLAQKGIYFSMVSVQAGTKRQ

HCT-8 [9] = test: Antiproliferative activity against human HCT-8 cells assessed as inhibition of cell growth at 50 uM incubated for 48 hrs by MTT assay; assay type: functional, cell-based
MCF7 = test: Antiproliferative activity against human MCF7 cells assessed as reduction in cell viability incubated for 48 hrs by MTT assay; assay type: functional, cell-based; conditions: MCF7, 48 h, read-out: IC50
HEK-293T = test: Cytotoxicity against human HEK293T cells assessed as cell survival rate at 10 uM incubated for 48 hrs by MTT assay; assay type: toxicity, cell-based
NCI/ADR-RES [10] = test: Induction of apoptosis in human NCI-ADR-RES cells assessed as viable cells at 3 uM incubated for 24 hrs by Annexin V-FITC and DAPI staining based flow cytometry (Rvb= 97.9 %); assay type: functional; conditions: read-out: Activity
NCI/ADR-RES [11] = test: Reversal of P-gp-mediated multidrug resistance in human NCI-ADR-RES cells assessed as change in ABCB1 expression level at 1 to 10 uM incubated for 24 hrs by Western blot analysis; assay type: functional, cell-based; conditions: dose 1-10 µM
NCI/ADR-RES [12] = test: Induction of apoptosis in human NCI-ADR-RES cells assessed as viable cells at 8 uM incubated for 24 hrs in presence of doxorubicin by Annexin V-FITC and DAPI staining based flow cytometry (Rvb= 97.9 %); assay type: functional; conditions: read-out: Activity
NCI-ADR-RES [13] = test: Inhibition of PI3K/AKT signaling pathway in human NCI-ADR-RES cells assessed as decrease in PI3K phosphorylation at 3 uM incubated for 24 to 48 hrs in presence of doxorubicin by Western blot analysis; assay type: cell-based; conditions: time 24-48 hrs
NCI/ADR-RES [14] = test: Induction of apoptosis in human NCI-ADR-RES cells assessed as necrotic cells at 8 uM incubated for 24 hrs in presence of doxorubicin by Annexin V-FITC and DAPI staining based flow cytometry (Rvb= 0.55 %); assay type: functional
[15] = Cytotoxicity against mouse MPC-5 cells assessed as inhibition of cell growth at 50 uM incubated for 48 hrs by MTT assay; assay type: toxicity, cell-based; conditions: mpc-5, 48 h
NCI/ADR-RES [16] = test: Antiproliferative activity against human multidrug resistant NCI-ADR-RES cells overexpressing P-gp assessed as reduction in cell viability incubated for 48 hrs by MTT assay; assay type: functional, cell-based
HCT-8 [17] = test: Antiproliferative activity against human Taxol resistant HCT-8 cells assessed as inhibition of cell growth at 50 uM incubated for 48 hrs by MTT assay; assay type: functional, cell-based
NCI-ADR-RES [18] = test: Inhibition of PI3K/AKT signaling pathway in human NCI-ADR-RES cells assessed as decrease in AKT phosphorylation at 3 uM incubated for 24 to 48 hrs in presence of doxorubicin by Western blot analysis; assay type: cell-based; conditions: time 24-48 hrs
NCI-ADR-RES [19] = test: Inhibition of PI3K/AKT signaling pathway in human NCI-ADR-RES cells assessed as increase in Caspase-3 level at 3 uM incubated for 24 to 48 hrs in presence of doxorubicin by Western blot analysis; assay type: cell-based; conditions: time 24-48 hrs
NCI/ADR-RES [20] = test: Induction of apoptosis in human NCI-ADR-RES cells assessed as early apoptotic cells at 8 uM incubated for 48 hrs in presence of doxorubicin by Annexin V-FITC and DAPI staining based flow cytometry (Rvb= 0.89 %); assay type: functional
NCI/ADR-RES [21] = test: Reversal fold, ratio of doxorubicin IC50 to doxorubicin IC50 in presence of 10 uM test compound for reversal of P-gp-mediated multidrug resistance in human NCI-ADR-RES cells incubated for 48 hrs by MTT assay; assay type: functional
NCI/ADR-RES [22] = test: Reversal of P-gp-mediated multidrug resistance in human NCI-ADR-RES cells assessed as change in ABCB1 expression level at 1 to 10 uM incubated for 48 hrs in presence of doxorubicin by Western blot analysis; assay type: functional, cell-based; conditions: dose 1-10 µM
A549 = test: Antiproliferative activity against human A549 cells assessed as inhibition of cell growth at 50 uM incubated for 48 hrs by MTT assay; assay type: functional, cell-based
NCI-ADR-RES [23] = test: Inhibition of PI3K/AKT signaling pathway in human NCI-ADR-RES cells assessed as decrease in Bcl-2 level at 3 uM incubated for 24 to 48 hrs in presence of doxorubicin by Western blot analysis; assay type: cell-based; conditions: time 24-48 hrs
NCI/ADR-RES [24] = test: Reversal of P-gp-mediated multidrug resistance in human NCI-ADR-RES cells assessed as change in ABCB1 expression level at 1 to 10 uM incubated for 24 hrs in presence of doxorubicin by Western blot analysis; assay type: functional, cell-based; conditions: dose 1-10 µM
NCI/ADR-RES [25] = test: Induction of apoptosis in human NCI-ADR-RES cells assessed as necrotic cells at 3 uM incubated for 24 hrs by Annexin V-FITC and DAPI staining based flow cytometry (Rvb= 0.55 %); assay type: functional
NCI/ADR-RES [26] = test: Induction of apoptosis in human NCI-ADR-RES cells assessed as viable cells at 3 uM incubated for 48 hrs by Annexin V-FITC and DAPI staining based flow cytometry (Rvb= 97.9 %); assay type: functional; conditions: read-out: Activity

With C=C1[C@H](OC(C)=O)[C@@H](OC(C)=O)[C@@H](OC(C)=O)C(C)(C)/C=C/[C@H](C)[C@H](OC(=O)c2ccccc2)[C@@]2(O)C[C@@](C)(OC(=O)C(C)(C)C)[C@H](OC(C)=O)[C@@H]2[C@H]1OCC(C)C the Activity (L02) was “Non-Toxic”, the selectivity ratio (P-gp) was 309 and the EC50 (NCI/ADR-RES [1]) was 0.182 µM. For the same compound, the Activity (NCI/ADR-RES [2]) was “inactive”, the Activity (NCI/ADR-RES [3]) was “inactive” and the Activity (NCI/ADR-RES [4]) was 0.73%. For the same compound, the viability at 8 µM (NCI/ADR-RES [5]) was 65%, the Activity (NCI/ADR-RES [6]) was 0.73% and the Activity (NCI/ADR-RES [7]) was 10.2%. For the same compound, the Activity (A549/TR) was “inactive”, the EC50 [8] was 0.357 µM and the Activity (HCT-8 [9]) was “inactive”. For the same compound, the IC50 (MCF7) was over 100 µM, the Activity (HEK-293T) was “Non-Toxic” and the viability at 3 µM (NCI/ADR-RES [10]) was 97.5%. The Activity (NCI/ADR-RES [11]) was “inactive”, the viability at 8 µM (NCI/ADR-RES [12]) was 87.1% and the inhibition (NCI-ADR-RES [13]) was “Active”. For the same compound, the Activity (NCI/ADR-RES [14]) was 0.24%, the Activity [15] was “Non-Toxic” and the IC50 (NCI/ADR-RES [16]) was over 100 µM. The Activity (HCT-8 [17]) was “inactive”, the inhibition (NCI-ADR-RES [18]) was “Active” and the inhibition (NCI-ADR-RES [19]) was “Active”. For the same compound, the Activity (NCI/ADR-RES [20]) was 16.4%, the “Ratio IC50” value (NCI/ADR-RES [21]) was 116.6 and the Activity (NCI/ADR-RES [22]) was “Active”. For the same compound, the Activity (A549) was “inactive”, the inhibition (NCI-ADR-RES [23]) was “Active” and the Activity (NCI/ADR-RES [24]) was “Active”. The Activity (NCI/ADR-RES [25]) was 1.06% and the viability at 3 µM (NCI/ADR-RES [26]) was 98.4%.
